In patent US20150105252A1, “SUBSTITUTED PYRAZOLES AS HERBICIDES” (E I DU PONT DE NEMOURS AND COMPANY, priority 2013, published 2015):

Tests used:
Experiment in all cases: Test F preemergence
lambsquarters = format: in vivo, Chenopodium album
Source text: (§1) Seeds of plant species selected from corn (Zea mays), soybean (Glycine max), velvetleaf (Abutilon theophrasti), lambsquarters (Chenopodium album), wild poinsettia (Euphorbia heterophylla), pigweed, palmer (palmer pigweed, Amaranthus palmeri), common waterhemp (Amaranthus rudis), surinam grass (Brachiaria decumbens), large crabgrass (Digitaria sanguinalis), crabgrass, Brazil (Brazilian crabgrass, Digitaria horizontalis), fall panicum (Panicum dichotomiflorum), giant foxtail (Setaria faberii), green foxtail (Setaria viridis), goosegrass (Eleusine indica), johnsongrass (Sorghum halepense), common ragweed (Ambrosia elation), barnyardgrass (Echinochloa crus-galli), southern sandbur (Cenchrus echinatus), arrowleaf sida (Sida rhombifolia), Italian ryegrass (Lolium multiflorum), dayflower, VA (Virginia (VA) dayflower, Commelina virginica), field bindweed (Convolvulus arvensis), cocklebur (common cocklebur, Xanthium strumarium), morningglory (Ipomoea coccinea), nightshade (eastern black nightshade, Solanum ptycanthum), kochia (Kochia scoparia), yellow nutsedge (Cyperus esculentus), and hairy beggarticks (Bidens pilosa), were planted into a silt loam soil and treated preemergence with test chemicals formulated in a non-phytotoxic solvent mixture which included a surfactant.
(§2) At the same time, plants from these crop and weed species and also horseweed (Canada horseweed, Conyza canadensis), smartweed (ladysthumb smartweed, Polygonum persicaria), waterhemp_RES1, (ALS & Triazine resistant common waterhemp, Amaranthus rudis), and waterhemp_RES2, (ALS & HPPD resistant common waterhemp, Amaranthus rudis) were treated with postemergence applications of test chemicals formulated in the same manner. Plants ranged in height from 2 to 18 cm for postemergence treatments (1- to 4-leaf stage). Treated plants and controls were maintained in a greenhouse for 14 to 21 days, after which time all species were compared to controls and visually evaluated. Plant response ratings, summarized in Table F, are based on a scale of 0 to 100 where 0 is no effect and 100 is complete control. A dash (-) response means no test result.

barnyardgrass = format: in vivo, Echinochloa crus-galli
Source text: as §1, §2

wild poinsettia = format: in vivo, Euphorbia heterophylla
Source text: as §1, §2

Italian ryegrass = format: in vivo, Lolium multiflorum
Source text: as §1, §2

soybean = format: in vivo, Glycine max
Source text: as §1, §2

[1] = Preemergence, 62 g ai/ha, scale 0 to 100
[2] = Preemergence, 125 g ai/ha, scale 0 to 100
[3] = preemergence, 8 g ai/ha, scale 0 to 100, 100 is complete control
[4] = preemergence, 16 g ai/ha, scale 0 to 100, 100 is complete control
[5] = Preemergence, 16 g ai/ha, scale 0 to 100
[6] = Preemergence, 250 g ai/ha, scale 0 to 100

Compound	Plant response rating, Lambsquarters (lambsquarters; [1])	Plant response rating, Lambsquarters (lambsquarters; [2])	Plant response rating, Lambsquarters (lambsquarters; [3])	Plant response rating, Lambsquarters (lambsquarters; [4])	Plant response rating, Barnyardgrass (barnyardgrass; [5])	Plant response rating, Barnyardgrass (barnyardgrass; [1])	Plant response rating, Barnyardgrass (barnyardgrass; [2])	Plant response rating, Barnyardgrass (barnyardgrass; [3])	Plant response rating, Barnyardgrass (barnyardgrass; [4])	Plant response rating, Wild Poinsettia (wild poinsettia; [1])	Plant response rating, Wild Poinsettia (wild poinsettia; [2])	Plant response rating, Wild Poinsettia (wild poinsettia; [3])	Plant response rating, Wild Poinsettia (wild poinsettia; [4])	Plant response rating, Italian Ryegrass (Italian ryegrass; [1])	Plant response rating, Italian Ryegrass (Italian ryegrass; [2])	Plant response rating, Italian Ryegrass (Italian ryegrass; [4])	Plant response rating, Soybean (soybean; [5])	Plant response rating, Soybean (soybean; [1])	Plant response rating, Soybean (soybean; [2])	Plant response rating, Soybean (soybean; [4])	also measured
CCNC(=O)c1cc(CC)n(Cc2ccnc(C(F)(F)F)c2)n1 [Compound 196]	98	100	0	5	0	10	65	0	0	35	65	0	5	20	50	0	20	50	50	0	Plant response rating, Italian Ryegrass (Italian ryegrass; [3]): 0; Plant response rating, Soybean (soybean; [3]): 0
Cc1cc(C(=O)NC(C)C)nn1Cc1ccnc(C(F)(F)F)c1 [Compound 197]	35	80	0	35	0	0	0	0	0	35	60	5	0	30	30	0	10	20	65	5	Plant response rating, Italian Ryegrass (Italian ryegrass; [3]): 0; Plant response rating, Soybean (soybean; [3]): 0
CCc1cc(C(=O)NC2CC2)nn1Cc1ccnc(OCC(F)(F)F)c1 [Compound 200]	65	70	–	0	15	25	20	–	0	15	20	–	0	0	60	0	0	0	65	0	Plant response rating, Lambsquarters (lambsquarters; [6]): 98; Plant response rating, Barnyardgrass (barnyardgrass; [6]): 50; Plant response rating, Wild Poinsettia (wild poinsettia; [6]): 35; Plant response rating, Italian Ryegrass (Italian ryegrass; [6]): 75; Plant response rating, Soybean (soybean; [6]): 75
